According to ChEMBL document CHEMBL4699440, “Comprehensive review on the anti-bacterial activity of 1,2,3-triazole hybrids” (Eur J Med Chem, 2019):
Values after ≈ are worked out from the molar mass of the structure shown.

Tests used:
[1] = test system: Escherichia coli; experiment: Antibacterial activity against Escherichia coli MTCC […] by serial dilution method; assay type: functional
[2] = test system: Pseudomonas aeruginosa; experiment: Antibacterial activity against Pseudomonas aeruginosa MTCC 424 by serial dilution method; assay type: functional
[3] = test system: Staphylococcus epidermidis; experiment: Antibacterial activity against Staphylococcus epidermidis MTCC 6880 by serial dilution method; assay type: functional
[4] = test system: Candida albicans; experiment: Antibacterial activity against Candida albicans MTCC 227 by serial dilution method; assay type: functional
[5] = test system: Aspergillus niger; experiment: Antibacterial activity against Aspergillus niger MTCC 8189 by serial dilution method; assay type: functional
[6] = test system: Bacillus subtilis; experiment: Antibacterial activity against Bacillus subtilis MTCC 441 by serial dilution method; assay type: functional
[7] = test system: Klebsiella pneumoniae; experiment: Antibacterial activity against Klebsiella pneumoniae assessed as inhibition zone at 10 mg/ml; assay type: functional; conditions: read-out: IZ
[8] = test system: Salmonella typhi; experiment: Antibacterial activity against Salmonella typhi assessed as inhibition zone at 10 mg/ml; assay type: functional, Salmonella enterica subsp. enterica serovar Typhi; conditions: Salmonella enterica, read-out: IZ
[9] = test system: Proteus vulgaris; experiment: Antibacterial activity against Proteus vulgaris assessed as inhibition zone at 10 mg/ml; assay type: functional; conditions: read-out: IZ
[10] = test system: Escherichia coli; experiment: Antibacterial activity against Escherichia coli assessed as inhibition zone at 10 mg/ml; assay type: functional; conditions: read-out: IZ
[11] = test system: Pseudomonas aeruginosa; experiment: Antibacterial activity against Pseudomonas aeruginosa assessed as inhibition zone at 10 mg/ml; assay type: functional; conditions: read-out: IZ
[12] = test system: Staphylococcus aureus; experiment: Antibacterial activity against Staphylococcus aureus ATCC 12598 incubated for 24 hrs by broth microdilution method; assay type: functional
[13] = test system: Bacillus subtilis; experiment: Antibacterial activity against Bacillus subtilis ATCC 6051 incubated for 24 hrs by broth microdilution method; assay type: functional
[14] = test system: Escherichia coli; experiment: Antibacterial activity against Escherichia coli ATCC 25922 incubated for 24 hrs by broth microdilution method; assay type: functional
[15] = test system: Pseudomonas aeruginosa; experiment: Antibacterial activity against Pseudomonas aeruginosa ATCC 25619 incubated for 24 hrs by broth microdilution method; assay type: functional

Compound	MIC [1] [µM]	MIC [2] [µM]	MIC [3] [µM]	MIC [4] [µM]	MIC [5] [µM]	MIC [6] [µM]	zone of inhibition at 10000 µg/mL [7] [mm]	zone of inhibition at 10000 µg/mL [8] [mm]	zone of inhibition at 10000 µg/mL [9] [mm]	zone of inhibition at 10000 µg/mL [10] [mm]	zone of inhibition at 10000 µg/mL [11] [mm]	MIC [12] [µg/mL]	MIC [13] [µg/mL]	MIC [14] [µg/mL]	MIC [15] [µg/mL]
Cc1cc(O)c(C(=O)/C=C/c2ccc(OCc3cn(-c4ccc([N+](=O)[O-])cc4)nn3)cc2)c(=O)o1	3 (≈ 1.42 µg/mL)	3 (≈ 1.42 µg/mL)	3 (≈ 1.42 µg/mL)	3 (≈ 1.42 µg/mL)	3 (≈ 1.42 µg/mL)	3 (≈ 1.42 µg/mL)	–	–	–	–	–	–	–	–	–
Cc1cc(O)c(C(=O)/C=C/c2ccc(OCc3cn(-c4ccc(Br)cc4)nn3)cc2)c(=O)o1	3 (≈ 1.52 µg/mL)	3 (≈ 1.52 µg/mL)	3 (≈ 1.52 µg/mL)	3 (≈ 1.52 µg/mL)	3 (≈ 1.52 µg/mL)	3 (≈ 1.52 µg/mL)	–	–	–	–	–	–	–	–	–
Cc1ccc(OCc2cn(Cc3cc4ccccc4nc3Cl)nn2)cc1	–	–	–	–	–	–	7	7	7	7	7	–	–	–	–
Cc1cc(O)c(C(=O)/C=C/c2ccc(OCc3cn(Cc4ccccc4F)nn3)cc2)c(=O)o1	3 (≈ 1.38 µg/mL)	3 (≈ 1.38 µg/mL)	3 (≈ 1.38 µg/mL)	3 (≈ 1.38 µg/mL)	3 (≈ 1.38 µg/mL)	3 (≈ 1.38 µg/mL)	–	–	–	–	–	–	–	–	–
Clc1ccc(OCc2cn(Cc3cc4ccccc4nc3Cl)nn2)cc1	–	–	–	–	–	–	7	7	7	7	7	–	–	–	–
Cc1cccc(Cn2cc(COc3ccc(/C=C/C(=O)c4c(O)cc(C)oc4=O)cc3)nn2)c1	3 (≈ 1.37 µg/mL)	3 (≈ 1.37 µg/mL)	3 (≈ 1.37 µg/mL)	3 (≈ 1.37 µg/mL)	3 (≈ 1.37 µg/mL)	3 (≈ 1.37 µg/mL)	–	–	–	–	–	–	–	–	–
Cc1ccc2nc(Cl)c(Cn3cc(COc4ccc(Cl)cc4)nn3)cc2c1	–	–	–	–	–	–	7	7	7	7	7	–	–	–	–
COc1ccc2nc(Cl)c(Cn3cc(COc4ccccc4)nn3)cc2c1	–	–	–	–	–	–	7	7	7	7	7	–	–	–	–
Cc1cc(O)c(C(=O)/C=C/c2ccc(OCc3cn(-c4ccccc4)nn3)cc2)c(=O)o1	3 (≈ 1.29 µg/mL)	3 (≈ 1.29 µg/mL)	3 (≈ 1.29 µg/mL)	3 (≈ 1.29 µg/mL)	3 (≈ 1.29 µg/mL)	3 (≈ 1.29 µg/mL)	–	–	–	–	–	–	–	–	–
Cc1cc(O)c(C(=O)/C=C/c2ccc(OCc3cn(Cc4ccc(F)cc4)nn3)cc2)c(=O)o1	3 (≈ 1.38 µg/mL)	3 (≈ 1.38 µg/mL)	3 (≈ 1.38 µg/mL)	3 (≈ 1.38 µg/mL)	3 (≈ 1.38 µg/mL)	3 (≈ 1.38 µg/mL)	–	–	–	–	–	–	–	–	–
Cc1ccc2nc(Cl)c(Cn3cc(COc4ccc(Cl)c(C)c4)nn3)cc2c1	–	–	–	–	–	–	7	7	7	7	7	–	–	–	–
Cc1cc(O)c(C(=O)/C=C/c2ccc(OCc3cn(Cc4ccc([N+](=O)[O-])cc4)nn3)cc2)c(=O)o1	3 (≈ 1.47 µg/mL)	3 (≈ 1.47 µg/mL)	3 (≈ 1.47 µg/mL)	3 (≈ 1.47 µg/mL)	3 (≈ 1.47 µg/mL)	3 (≈ 1.47 µg/mL)	–	–	–	–	–	–	–	–	–
Cc1cc(O)c(C(=O)/C=C/c2ccc(OCc3cn(Cc4cccc(Br)c4)nn3)cc2)c(=O)o1	3 (≈ 1.57 µg/mL)	3 (≈ 1.57 µg/mL)	3 (≈ 1.57 µg/mL)	3 (≈ 1.57 µg/mL)	3 (≈ 1.57 µg/mL)	3 (≈ 1.57 µg/mL)	–	–	–	–	–	–	–	–	–
Cc1cc(O)c(C(=O)/C=C/c2ccc(OCc3cn(Cc4ccccc4[N+](=O)[O-])nn3)cc2)c(=O)o1	3 (≈ 1.47 µg/mL)	3 (≈ 1.47 µg/mL)	3 (≈ 1.47 µg/mL)	3 (≈ 1.47 µg/mL)	3 (≈ 1.47 µg/mL)	3 (≈ 1.47 µg/mL)	–	–	–	–	–	–	–	–	–
Cc1cc(O)c(C(=O)/C=C/c2ccc(OCc3cn(Cc4ccc(Br)cc4)nn3)cc2)c(=O)o1	3 (≈ 1.57 µg/mL)	3 (≈ 1.57 µg/mL)	3 (≈ 1.57 µg/mL)	3 (≈ 1.57 µg/mL)	3 (≈ 1.57 µg/mL)	3 (≈ 1.57 µg/mL)	–	–	–	–	–	–	–	–	–
Cc1ccc2nc(Cl)c(Cn3cc(COc4ccc([N+](=O)[O-])cc4)nn3)cc2c1	–	–	–	–	–	–	7	7	7	7	7	–	–	–	–
CC(=O)Nc1ccc(OCc2cn(Cc3cc4cc(C)ccc4nc3Cl)nn2)cc1	–	–	–	–	–	–	7	7	7	7	7	–	–	–	–
Cc1cc(O)c(C(=O)/C=C/c2ccc(OCc3cn(Cc4ccccc4C)nn3)cc2)c(=O)o1	3 (≈ 1.37 µg/mL)	3 (≈ 1.37 µg/mL)	3 (≈ 1.37 µg/mL)	3 (≈ 1.37 µg/mL)	3 (≈ 1.37 µg/mL)	3 (≈ 1.37 µg/mL)	–	–	–	–	–	–	–	–	–
Cc1cc(O)c(C(=O)/C=C/c2ccc(OCc3cn(Cc4cccc([N+](=O)[O-])c4)nn3)cc2)c(=O)o1	3 (≈ 1.47 µg/mL)	3 (≈ 1.47 µg/mL)	3 (≈ 1.47 µg/mL)	3 (≈ 1.47 µg/mL)	3 (≈ 1.47 µg/mL)	3 (≈ 1.47 µg/mL)	–	–	–	–	–	–	–	–	–

Compound	MIC [1] [µM]	MIC [2] [µM]	MIC [3] [µM]	MIC [4] [µM]	MIC [5] [µM]	MIC [6] [µM]	zone of inhibition at 10000 µg/mL [7] [mm]	zone of inhibition at 10000 µg/mL [8] [mm]	zone of inhibition at 10000 µg/mL [9] [mm]	zone of inhibition at 10000 µg/mL [10] [mm]	zone of inhibition at 10000 µg/mL [11] [mm]	MIC [12] [µg/mL]	MIC [13] [µg/mL]	MIC [14] [µg/mL]	MIC [15] [µg/mL]
COc1ccc2nc(Cl)c(Cn3cc(COc4ccc(NC(C)=O)cc4)nn3)cc2c1	–	–	–	–	–	–	7	7	7	7	7	–	–	–	–
COc1ccc2nc(Cl)c(Cn3cc(COc4ccc([N+](=O)[O-])cc4)nn3)cc2c1	–	–	–	–	–	–	7	7	7	7	7	–	–	–	–
O=[N+]([O-])c1ccc(OCc2cn(Cc3cc4ccccc4nc3Cl)nn2)cc1	–	–	–	–	–	–	7	7	7	7	7	–	–	–	–
Cc1ccc2nc(Cl)c(Cn3cc(COc4ccccc4Cl)nn3)cc2c1	–	–	–	–	–	–	7	7	7	7	7	–	–	–	–
COc1ccc2nc(Cl)c(Cn3cc(COc4ccc(Cl)c(C)c4)nn3)cc2c1	–	–	–	–	–	–	7	7	7	7	7	–	–	–	–
Cc1ccc(Cn2cc(COc3ccc(/C=C/C(=O)c4c(O)cc(C)oc4=O)cc3)nn2)cc1	3 (≈ 1.37 µg/mL)	3 (≈ 1.37 µg/mL)	3 (≈ 1.37 µg/mL)	3 (≈ 1.37 µg/mL)	3 (≈ 1.37 µg/mL)	3 (≈ 1.37 µg/mL)	–	–	–	–	–	–	–	–	–
COc1ccc2nc(Cl)c(Cn3cc(COc4ccccc4Cl)nn3)cc2c1	–	–	–	–	–	–	7	7	7	7	7	–	–	–	–
COc1ccc2nc(Cl)c(Cn3cc(COc4ccc(Cl)cc4)nn3)cc2c1	–	–	–	–	–	–	7	7	7	7	7	–	–	–	–
Cc1ccc(OCc2cn(Cc3cc4cc(C)ccc4nc3Cl)nn2)cc1	–	–	–	–	–	–	7	7	7	7	7	–	–	–	–
CN[C@@H]1[C@H](O[C@H]2[C@H](O[C@H]3[C@H](O)[C@@H](O)[C@H](N=C(N)N)[C@@H](O)[C@@H]3N=C(N)N)O[C@@H](C)[C@]2(O)C=O)O[C@@H](CO)[C@H](O)[C@H]1O [STREPTOMYCIN]	–	–	–	–	–	–	–	–	–	–	–	2 (≈ 3.44 µM)	2 (≈ 3.44 µM)	2 (≈ 3.44 µM)	4 (≈ 6.88 µM)
Clc1ccccc1OCc1cn(Cc2cc3ccccc3nc2Cl)nn1	–	–	–	–	–	–	7	7	7	7	7	–	–	–	–
Cc1cc(O)c(C(=O)/C=C/c2ccc(OCc3cn(Cc4cccc(F)c4)nn3)cc2)c(=O)o1	3 (≈ 1.38 µg/mL)	3 (≈ 1.38 µg/mL)	3 (≈ 1.38 µg/mL)	3 (≈ 1.38 µg/mL)	3 (≈ 1.38 µg/mL)	3 (≈ 1.38 µg/mL)	–	–	–	–	–	–	–	–	–
Clc1nc2ccccc2cc1Cn1cc(COc2ccccc2)nn1	–	–	–	–	–	–	7	7	7	7	7	–	–	–	–
Cc1cc(OCc2cn(Cc3cc4ccccc4nc3Cl)nn2)ccc1Cl	–	–	–	–	–	–	7	7	7	7	7	–	–	–	–
CC(=O)Nc1ccc(OCc2cn(Cc3cc4ccccc4nc3Cl)nn2)cc1	–	–	–	–	–	–	7	7	7	7	7	–	–	–	–
Cc1cc(O)c(C(=O)/C=C/c2ccc(OCc3cn(Cc4ccccc4Br)nn3)cc2)c(=O)o1	3 (≈ 1.57 µg/mL)	3 (≈ 1.57 µg/mL)	3 (≈ 1.57 µg/mL)	3 (≈ 1.57 µg/mL)	3 (≈ 1.57 µg/mL)	3 (≈ 1.57 µg/mL)	–	–	–	–	–	–	–	–	–
COc1ccc(-n2cc(COc3ccc(/C=C/C(=O)c4c(O)cc(C)oc4=O)cc3)nn2)cc1	3.4 (≈ 1.56 µg/mL)	3.4 (≈ 1.56 µg/mL)	3.4 (≈ 1.56 µg/mL)	3.4 (≈ 1.56 µg/mL)	3.4 (≈ 1.56 µg/mL)	3.4 (≈ 1.56 µg/mL)	–	–	–	–	–	–	–	–	–
COc1ccc2nc(Cl)c(Cn3cc(COc4ccc(C)cc4)nn3)cc2c1	–	–	–	–	–	–	7	7	7	7	7	–	–	–	–
Cc1ccc2nc(Cl)c(Cn3cc(COc4ccccc4)nn3)cc2c1	–	–	–	–	–	–	7	7	7	7	7	–	–	–	–
